Measured values taken from PubChem BioAssay AID2060892 (Molecular Pharmacology Branch, DTP, NCI, 2025).

Tested on: HOP-62 complex spheroids with HUVEC/MSC, viability
Experiment: Anticancer human tumor HOP-62 cell line growth inhibition [RAS];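 further: spheroids exposed to agents for seven days before readout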;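 on viability, T/C: 100% = DMSO vehicle control viability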
Conditions: for IC50: curve of first compound; for viability, T/C: stronger effect = lower value
Description: RAS pathway inhibitors in Combinations in Complex Spheroids
A high-throughput screen of multi-cell type tumor spheroids was designed to identify active combinations of RAS pathway inhibitors and targeted small molecules. Complex spheroids include a stromal component modeled by human endothelial cells (HUVEC) and fibroblasts modeled by human mesenchymal stem cells (MSCs). The concentration ranges selected for each drug and investigational agent were based upon clinically achievable concentrations if the clinical Cmax of the agent was known.
Compounds. The drugs and investigational agents: abemaciclib (NSC768073), cobimetinib (NSC768068), divarasib (GDC6063, NSC841802), docetaxel (NSC628503), GDC-1971 (RLY-1971, NSC841576), gemcitabine (NSC613327), inavolisib (NSC800729), ipatasertib (NSC767898), KB-0742 (NSC834161), MRTX-1133 (NSC836407), osimertinib (NSC779217), RMC-4630 (NSC839698), RMC-6236 (NSC851965), RMC-6291 (NSC852671), Ro-3306 (NSC812927), sapanisertib (NSC764658), SN-38 (NSC673596), staurosporine (NSC755774), SY5609 (NSC837396), and tovorafenib (DAY101, NSC766906), were obtained from the National Cancer Institute (NCI) Developmental Therapeutics Program Chemical Repository. The FDA-approved anticancer drug set is available from the NCI Developmental Therapeutics Program. […] The stock solutions were prepared in dimethyl sulfoxide (DMSO, Sigma-Aldrich, St. Louis, MO, cat. D2650) at 800-fold the tested concentration and stored at -70 degrees C prior to their use. All drugs and investigational agents were tested over a range starting from a high concentration at or near the clinical Cmax and decreasing in half-log increments. If the clinical Cmax for an agent had not been determined, the highest concentration tested was 10 microM.
Cell Culture. All cells were maintained in an incubator at 37 degrees C and 5% CO2 with 95% humidity. The PDC lines were cultured according to standard operating procedures established by the NCI PDMR. All PDCs were thawed and cultured in Matrigel-coated flasks prepared with a working solution of 1X Ham's F-12 nutrient mix, without supplementation (Invitrogen, Waltham, MA, cat. 11765054), 100 U/mL penicillin-streptomycin (Invitrogen, cat. 15140122), and 2.5% Matrigel (Corning Inc., Corning, NY, cat. 354248) for the first three passages. The 362531-283-R-J2-PDC and 782815-120-R-J1-PDC lines were cultured in 6C/Colon 1B media, which includes advanced DMEM/F-12 (Thermo Fisher Scientific, cat. 12634028), 10 mM HEPES (Thermo Fisher Scientific, cat. 15630080), 1X GlutaMAX supplement (Thermo Fisher Scientific, cat. 35050061), 0.1 mg/mL primocin (InvivoGen, San Diego, CA, cat. ant-pm-2), 10% defined fetal bovine serum, heat inactivated (HyClone Laboratories Inc., Logan, UT, cat. SH30070.03HI), 50% L-WRN conditioned media (ATCC, cat. CRL-3276), 1.25 mM N-Acetyl-L-cysteine (Sigma-Aldrich, cat. A9165), 10 mM nicotinamide (Sigma-Aldrich, cat. N0636), 1X B-27 supplement (Thermo Fisher Scientific, cat. 17504044), 1X N-2 supplement (Thermo Fisher Scientific, cat. 17502048), 50 ng/mL human EGF (Thermo Fisher Scientific, cat. PHG0311), and 10 microM Y-27632 dihydrochloride (Tocris Bioscience, cat. 1254). The K12877-001-R-J1-PDC line was cultured in 6I media, which includes all 6C/Colon 1B media plus 10 ng/mL human FGF-10 (PeproTech, cat. 100-26), 1 ng/mL human FGF-2 (PeproTech, cat. 100-18B), 1 µM prostaglandin E2 (Tocris Bioscience, cat. 2296), […] hydrocortisone (Sigma-Aldrich, cat. H4001), and […] bovine insulin (Sigma-Aldrich, cat. I6634). The K86415-001-R-J1-PDC line was cultured in 6D media, which includes all 6C/Colon 1B media components minus the L-WRN conditioned media. The 485176-168-R4-J1-PDC was cultured in PANC media, which includes all 6C/Colon 1B media plus 100 ng/mL human FGF-10 (PeproTech, cat. 100-26), 500 nM SB-431542 (Selleckchem, cat. S1067), and 10 nM gastrin (Tocris Bioscience, cat. 3006). […]

[1] = second compound 0.0316 µM, first compound 0.0316 µM
[2] = second compound 0.0316 µM, first compound 0.1 µM
[3] = second compound 0.0316 µM, first compound 0.316 µM
[4] = second compound 0.0316 µM, first compound 1 µM
[5] = second compound 0.0316 µM, first compound 3.16 µM
[6] = second compound 0.0316 µM, first compound 10 µM
[7] = second compound 0.1 µM, first compound 0.0316 µM
[8] = second compound 0.1 µM, first compound 0.1 µM
[9] = second compound 0.1 µM, first compound 0.316 µM
[10] = second compound 0.1 µM, first compound 1 µM
[11] = second compound 0.1 µM, first compound 3.16 µM
[12] = second compound 0.1 µM, first compound 10 µM
[13] = second compound 0.316 µM, first compound 0.0316 µM
[14] = second compound 0.316 µM, first compound 0.1 µM
[15] = second compound 0.316 µM, first compound 0.316 µM
[16] = second compound 0.316 µM, first compound 1 µM
[17] = second compound 0.316 µM, first compound 3.16 µM
[18] = second compound 0.316 µM, first compound 10 µM
[19] = second compound 1 µM, first compound 0.0316 µM
[20] = second compound 1 µM, first compound 0.1 µM
[21] = second compound 1 µM, first compound 0.316 µM
[22] = second compound 1 µM, first compound 1 µM
[23] = second compound 1 µM, first compound 3.16 µM
[24] = second compound 1 µM, first compound 10 µM
[25] = second compound 3.16 µM, first compound 0.0316 µM
[26] = second compound 3.16 µM, first compound 0.1 µM
[27] = second compound 3.16 µM, first compound 0.316 µM
[28] = second compound 3.16 µM, first compound 1 µM
[29] = second compound 3.16 µM, first compound 3.16 µM
[30] = second compound 3.16 µM, first compound 10 µM
[31] = second compound 10 µM, first compound 0.0316 µM
[32] = second compound 10 µM, first compound 0.1 µM
[33] = second compound 10 µM, first compound 0.316 µM
[34] = second compound 10 µM, first compound 1 µM
[35] = second compound 10 µM, first compound 3.16 µM
[36] = second compound 10 µM, first compound 10 µM

## CC(C)NCC(C(=O)N1CCN(c2ncnc3c2C(C)CC3O)CC1)c1ccc(Cl)cc1 (stereo unspecified) + C#Cc1c(F)ccc2cc(O)cc(-c3ncc4c(N5CC6CCC(C5)N6)nc(OCC56CCCN5CC(F)C6)nc4c3F)c12
Second compound 0.0316 µM
  IC50: 2440 nM
Second compound 0.1 µM
  IC50: 2810 nM
Second compound 0.316 µM
  IC50: 2730 nM
Second compound 1 µM
  IC50: 1720 nM
Second compound 3.16 µM
  IC50: 676 nM
Second compound 10 µM
  IC50: 62.1 nM
[1]
  viability, T/C: 105%
[2]
  viability, T/C: 113%
[3]
  viability, T/C: 92.2%
[4]
  viability, T/C: 71.2%
[5]
  viability, T/C: 44.6%
[6]
  viability, T/C: 28.3%
[7]
  viability, T/C: 112%
[8]
  viability, T/C: 105%
[9]
  viability, T/C: 99.2%
[10]
  viability, T/C: 70%
[11]
  viability, T/C: 49.8%
[12]
  viability, T/C: 28.3%
[13]
  viability, T/C: 105%
[14]
  viability, T/C: 104%
[15]
  viability, T/C: 96.3%
[16]
  viability, T/C: 73.1%
[17]
  viability, T/C: 47.5%
[18]
  viability, T/C: 27%
[19]
  viability, T/C: 108%
[20]
  viability, T/C: 100%
[21]
  viability, T/C: 86.5%
[22]
  viability, T/C: 59.9%
[23]
  viability, T/C: 38.5%
[24]
  viability, T/C: 23.5%
[25]
  viability, T/C: 72.2%
[26]
  viability, T/C: 75%
[27]
  viability, T/C: 63.9%
[28]
  viability, T/C: 41.6%
[29]
  viability, T/C: 26.1%
[30]
  viability, T/C: 16.1%
[31]
  viability, T/C: 54.3%
[32]
  viability, T/C: 47%
[33]
  viability, T/C: 35.2%
[34]
  viability, T/C: 23%
[35]
  viability, T/C: 13.7%
[36]
  viability, T/C: 9.15%

## CC(C)n1nc(-c2ccc3oc(N)nc3c2)c2c(N)ncnc21 + C#Cc1c(F)ccc2cc(O)cc(-c3ncc4c(N5CC6CCC(C5)N6)nc(OCC56CCCN5CC(F)C6)nc4c3F)c12
Second compound 0.0316 µM
  IC50: 27.8 nM
Second compound 0.1 µM
  IC50: 28.1 nM
Second compound 0.316 µM
  IC50: 19.5 nM
Second compound 1 µM
  IC50: 12.4 nM
Second compound 3.16 µM
  IC50: 3.75 nM
Second compound 10 µM
  IC50: < 0.316 nM
Second compound 0.0316 µM, first compound 0.000316 µM
  viability, T/C: 99.2%
Second compound 0.0316 µM, first compound 0.001 µM
  viability, T/C: 99%
Second compound 0.0316 µM, first compound 0.00316 µM
  viability, T/C: 86.8%
Second compound 0.0316 µM, first compound 0.01 µM
  viability, T/C: 73.7%
[1]
  viability, T/C: 46.3%
[2]
  viability, T/C: 28.3%
Second compound 0.1 µM, first compound 0.000316 µM
  viability, T/C: 110%
Second compound 0.1 µM, first compound 0.001 µM
  viability, T/C: 94.9%
Second compound 0.1 µM, first compound 0.00316 µM
  viability, T/C: 83.9%
Second compound 0.1 µM, first compound 0.01 µM
  viability, T/C: 69.6%
[7]
  viability, T/C: 46.9%
[8]
  viability, T/C: 26.7%
Second compound 0.316 µM, first compound 0.000316 µM
  viability, T/C: 106%
Second compound 0.316 µM, first compound 0.001 µM
  viability, T/C: 99.3%
Second compound 0.316 µM, first compound 0.00316 µM
  viability, T/C: 79.3%
Second compound 0.316 µM, first compound 0.01 µM
  viability, T/C: 63.1%
[13]
  viability, T/C: 41.1%
[14]
  viability, T/C: 26.5%
Second compound 1 µM, first compound 0.000316 µM
  viability, T/C: 106%
Second compound 1 µM, first compound 0.001 µM
  viability, T/C: 89.7%
Second compound 1 µM, first compound 0.00316 µM
  viability, T/C: 70%
Second compound 1 µM, first compound 0.01 µM
  viability, T/C: 54.6%
[19]
  viability, T/C: 36.1%
[20]
  viability, T/C: 26.6%
Second compound 3.16 µM, first compound 0.000316 µM
  viability, T/C: 76.9%
Second compound 3.16 µM, first compound 0.001 µM
  viability, T/C: 67.2%
Second compound 3.16 µM, first compound 0.00316 µM
  viability, T/C: 47.6%
Second compound 3.16 µM, first compound 0.01 µM
  viability, T/C: 37.5%
[25]
  viability, T/C: 35.6%
[26]
  viability, T/C: 14.4%
Second compound 10 µM, first compound 0.000316 µM
  viability, T/C: 45.7%
Second compound 10 µM, first compound 0.001 µM
  viability, T/C: 32.8%
Second compound 10 µM, first compound 0.00316 µM
  viability, T/C: 28.2%
Second compound 10 µM, first compound 0.01 µM
  viability, T/C: 21.6%
[31]
  viability, T/C: 13%
[32]
  viability, T/C: 11.6%

## C[C@@H](NC(=O)c1ncnc(N)c1Cl)c1ncc(C(=O)Nc2cc(C(F)(F)F)c(Cl)cn2)s1 + C#Cc1c(F)ccc2cc(O)cc(-c3ncc4c(N5CC6CCC(C5)N6)nc(OCC56CCCN5CC(F)C6)nc4c3F)c12
Second compound 0.0316 µM
  IC50: > 10000 nM
Second compound 0.1 µM
  IC50: > 10000 nM
Second compound 0.316 µM
  IC50: > 10000 nM
Second compound 1 µM
  IC50: > 10000 nM
Second compound 3.16 µM
  IC50: > 10000 nM
Second compound 10 µM
  IC50: 457 nM
[1]
  viability, T/C: 109%
[2]
  viability, T/C: 105%
[3]
  viability, T/C: 101%
[4]
  viability, T/C: 102%
[5]
  viability, T/C: 92.6%
[6]
  viability, T/C: 78.6%
[7]
  viability, T/C: 110%
[8]
  viability, T/C: 113%
[9]
  viability, T/C: 105%
[10]
  viability, T/C: 102%
[11]
  viability, T/C: 96.8%
[12]
  viability, T/C: 75.4%
[13]
  viability, T/C: 114%
[14]
  viability, T/C: 101%
[15]
  viability, T/C: 96.6%
[16]
  viability, T/C: 104%
[17]
  viability, T/C: 97.6%
[18]
  viability, T/C: 62.8%
[19]
  viability, T/C: 117%
[20]
  viability, T/C: 97.9%
[21]
  viability, T/C: 91.1%
[22]
  viability, T/C: 94.1%
[23]
  viability, T/C: 88.6%
[24]
  viability, T/C: 65.4%
[25]
  viability, T/C: 83.2%
[26]
  viability, T/C: 78.7%
[27]
  viability, T/C: 77.1%
[28]
  viability, T/C: 77.4%
[29]
  viability, T/C: 73.4%
[30]
  viability, T/C: 58.4%
[31]
  viability, T/C: 51.9%
[32]
  viability, T/C: 46.8%
[33]
  viability, T/C: 54.1%
[34]
  viability, T/C: 49.9%
[35]
  viability, T/C: 43.4%
[36]
  viability, T/C: 33.7%
